From patent USRE45313E1, “Exendin variant peptides” (priority 1999, dated 2014) come the findings set out here.

Structures are written as SMILES. Entries after “also recorded” stand apart in the source; their conditions may differ. Where only a bound is given, the exact number is not on record here.

The half-life is the time in which the quantity being followed falls by half.

A short description of one data set: in vitro. The conditions noted are these: 37 C, followed for 720 min; for half-life at 10 µg/ml: Sprague-Dawley, rat, heparin-stabilised rat plasma, T½ in rat plasma; for T½ in rat plasma / kobs (degradation rate): heparin stabilised rat plasma. As to the method:
The degradation of the two test compounds and in heparin stabilised rat (Sprague-Dawley) plasma was followed by the combination of solid phase extraction and LC-MS. The degradation was followed for 720 minutes in plasma.
Blank rat plasma in sodium heparin (5000 units/mL) were obtained from Harlan Sera Lab Ltd. (Loughborough, UK).
The LC-MS analysis was performed on an HP 1100 instrument consisting of an on-line degasser, a quaternary gradient pump, an auto sampler, a column oven, Hewlett Packard (Wilmington. Del., U.S.A.) in combination with a Quattro Ultima mass spectrometer from Micromass (Altrincham, UK). Both the LC and MS were controlled by MassLynx 3.3 software. The LC separations prior to MS detection were performed on a Vydac 218MS52 (2.1×250 mm) column (Hesperia, Calif., U.S.A.).
The initial plasma volume was 1000 μl (37° C.). From the initial plasma volume, 100 μl was transferred to a 0.75 ml HPLC vial (used as blank), mixed with 560 μl extraction solution (MeCN:0.18 M ammonium carbonate pH 9.5 (6:94 v/v), 4 C) and extracted by Solid Phase Extraction using ASPEC XL4 Robot. A volume of 100 μl stock solution was added to the remaining 900 μl plasma, mixed thoroughly and incubated at 37 C (corresponding to an initial concentration of 10 μg of the test compounds/ml). At each time point (0.2, 60, 120, 180, 240, 360, 480, 662 and 720 min., respectively) 100 μl of the drug containing plasma was collected, mixed with 560 μl ice cold extraction solution and immediately extracted by SPE as described above. The extracted plasma samples were analysed by LC-MS.
The samples were kept at 18° C. in the autosampler tray prior to injection of 10 μl. The separations were performed at 30° C. on a Vydac 218MS52 (2.1×250 mm) LC column using a linear gradient from 15 to 50% B within 14 min. at a flow rate of 250 μl/min 0.1% formic acid in water was used as mobile phase A and 0.1% formic acid in MeCN as mobile phase B. Compound 4 and Compound (iii) were detected by single ion recording (SIR) using the 6 H+(m/z=676.7) and 4 H+(m/z=822.1) ion species, respectively. The cone voltage for the analysis of compound (iii) and Compound 4 was set to 100 and 70 V respectively. […] The degradation of the two compounds were followed for 720 min and the results were plotted as the natural logarithm of the peak area vs. time.

The next data set has as its system diabetic ob/ob mice. In words: Single dose effect of oral and parenteral administration on blood glucose levels in diabetic ob/ob mice (Example 24). The format is in vivo. The source says: This was examined using Compound 5 to test the effect on blood glucose (BG) levels in the ob/ob mutant mice after intraperitoneal (i.p.) and peroral (p.o.) administration. […] Forty female diabetic ob/ob mice (Umeä strain, Bomholtgaard), which are obese due to a dominant mutant leptin (Tomita, T., Doull, V., Pollock, H. G., and Krizsan, D. 1992. Pancreatic islets of obese hyperglycemic mice (ob/ob). […] At arrival the animals were 8 weeks of age. The mice were allowed 2 weeks of acclimatization before experiments were initiated. At the time of experiment the mice were 13 weeks old with a body weight of 41.8±3.2 g (mean±SD; n=42). Handling of the mice one and three days before the experiment was performed in order to reduce stress-induced BG excursions. On the day of the experiment, blood was taken from the tip of the tail 2-3 hours after the light was turned on. A single drop of blood (<5 μl) was dropped on the glucose strip for analysis and measured by an Elite Autoanalyser, Bayer, Denmark. Whole blood glucose (BG) concentration was analysed by the immobilised glucose oxidase method. Blood glucose levels varied between normoglycaemia and severe hyperglycaemia (range: 3.6-15.6 mM; mean±SD: 9.4±3.3 mM: n=42). Six animals with BG <5.8 mM were excluded from the study (total n=36). The remaining animals were stratified based on their BG levels in order to ensure that the mean BG was similar among groups. […] Compound 5 (batch nr. ZP 3.12 fraction 1-2. […] The peptide was dissolved in sterile isotonic NaCl shortly before dosing and given in a volume of 0.2 ml. The same solutions were used for both p.o. and i.p. administration. For each animal, a data log sheet was filled out at the time of each blood sampling. […] During control conditions, BG levels in non-fasted ob/ob mice were similar in all groups (individual group data not shown), but within groups, there was a great scatter on BG levels (BG range for all animals: 5.8-15.6 mM). Therefore, to correct for the varying degree of hyperglycemia, results are expressed as the relative difference from baseline (% control). […] In most groups (5/6), BG increased between 4 and 8 hrs after drug administration. Compound 5 reduced the BG levels in a dose of 110 μg/mouse when administered i.p. in diabetic ob/ob mice (data not shown). The antidiabetic effect was observed after 60 minutes and was maximal 2-4 h after administration of the compound. […] Glucagon-like peptide-1 and the entero-insular axis in obese hyperglycaemic (ob/ob) mice.

For `CC[C@H](C)[C@H](NC(=O)[C@H](Cc1ccccc1)NC(=O)[C@H](CCC(=O)O)NC(=O)[C@H](CCCCN)NC(=O)[C@H](C)NC(=O)[C@H](C)NC(=O)[C@H](CCC(N)=O)NC(=O)CNC(=O)[C@H](CCC(=O)O)NC(=O)[C@H](CC(C)C)NC(=O)[C@H](Cc1ccc(O)cc1)NC(=O)[C@H](CO)NC(=O)[C@H](CO)NC(=O)[C@@H](NC(=O)[C@H](CC(=O)O)NC(=O)[C@H](CO)NC(=O)[C@@H](NC(=O)[C@H](Cc1ccccc1)NC(=O)[C@@H](NC(=O)CNC(=O)[C@H](CCC(=O)O)NC(=O)CNC(=O)[C@@H](N)Cc1c[nH]cn1)[C@@H](C)O)[C@@H](C)O)C(C)C)C(=O)N[C@@H](C)C(=O)N[C@@H](Cc1c[nH]c2ccccc12)C(=O)N[C@@H](CC(C)C)C(=O)N[C@H](C(=O)N[C@@H](CCCCN)C(=O)NCC(=O)N[C@@H](CCCNC(=N)N)C(=O)N[C@@H](CCCCN)C(=O)N[C@@H](CCCCN)C(=O)N[C@@H](CCCCN)C(=O)N[C@@H](CCCCN)C(=O)N[C@@H](CCCCN)C(=O)N[C@@H](CCCCN)C(N)=O)C(C)C` [Compound 4], in the data set “in vitro”, the half-life at 10 µg/ml was found to be 7.77 h, the “T½ in rat plasma” value was found to be 7.768 h and the “kobs (degradation rate)” value was 0.0015 min⁻¹.

`CCCCCCCCCCCCCCCC(=O)NCCCC[C@H](NC(=O)[C@H](CCCNC(=N)N)NC(=O)CNC(=O)[C@H](CCCCN)NC(=O)[C@@H](NC(=O)[C@H](CC(C)C)NC(=O)[C@H](Cc1c[nH]c2ccccc12)NC(=O)[C@H](C)NC(=O)[C@@H](NC(=O)[C@H](Cc1ccccc1)NC(=O)[C@H](CCC(=O)O)NC(=O)[C@H](CCCCN)NC(=O)[C@H](C)NC(=O)[C@H](C)NC(=O)[C@H](CCC(N)=O)NC(=O)CNC(=O)[C@H](CCC(=O)O)NC(=O)[C@H](CC(C)C)NC(=O)[C@H](Cc1ccc(O)cc1)NC(=O)[C@H](CO)NC(=O)[C@H](CO)NC(=O)[C@@H](NC(=O)[C@H](CC(=O)O)NC(=O)[C@H](CO)NC(=O)[C@@H](NC(=O)[C@H](Cc1ccccc1)NC(=O)[C@@H](NC(=O)CNC(=O)[C@H](CCC(=O)O)NC(=O)CNC(=O)[C@@H](N)Cc1c[nH]cn1)[C@@H](C)O)[C@@H](C)O)C(C)C)[C@@H](C)CC)C(C)C)C(=O)N[C@@H](CCCCN)C(=O)N[C@@H](CCCCN)C(=O)N[C@@H](CCCCN)C(=O)N[C@@H](CCCCN)C(=O)N[C@@H](CCCCN)C(=O)N[C@@H](CCCCN)C(N)=O` [Compound 5]: the “time of BG nadir after administration” value in the data set on diabetic ob/ob mice (110 μg i.p.) fell in the range of 1 to 2 h. Moreover, in the data set on diabetic ob/ob mice (110 μg/mouse i.p.), the “duration of effect (long-lasting effect)” value was over 8 h, the “effect on blood glucose (BG) levels” value is reported as “reduced BG levels; also recorded: sustained decrease in BG; also recorded: effectively lowers BG levels”, the “time at which antidiabetic effect was observed” value turned out to be 60 min and the “time of maximal antidiabetic effect after administration” value lay within 2 to 4 h. In addition, the “effect on blood glucose (BG) levels” value with diabetic ob/ob mice (p.o., doses lower than 1100 μg/mouse) was “not at lower doses”.

As to `CC[C@H](C)[C@H](NC(=O)[C@H](Cc1ccccc1)NC(=O)[C@H](CCC(=O)O)NC(=O)[C@H](CCCCN)NC(=O)[C@H](C)NC(=O)[C@H](C)NC(=O)[C@H](CCC(N)=O)NC(=O)CNC(=O)[C@H](CCC(=O)O)NC(=O)[C@H](CC(C)C)NC(=O)[C@H](Cc1ccc(O)cc1)NC(=O)[C@H](CO)NC(=O)[C@H](CO)NC(=O)[C@@H](NC(=O)[C@H](CC(=O)O)NC(=O)[C@H](CO)NC(=O)[C@@H](NC(=O)[C@H](Cc1ccccc1)NC(=O)[C@@H](NC(=O)CNC(=O)[C@H](CCC(=O)O)NC(=O)CNC(=O)[C@@H](N)Cc1cnc[nH]1)[C@@H](C)O)[C@@H](C)O)C(C)C)C(=O)N[C@@H](C)C(=O)N[C@@H](Cc1c[nH]c2ccccc12)C(=O)N[C@@H](CC(C)C)C(=O)N[C@H](C(=O)N[C@@H](CCCCN)C(=O)NCC(=O)N[C@@H](CCCNC(=N)N)C(N)=O)C(C)C` [Compound (iii), reference compound], in the data set “in vitro”, the half-life at 10 µg/ml amounted to 3.97 h, the “T½ in rat plasma” value is 3.973 h and the “kobs (degradation rate)” value stood at 0.0029 min⁻¹.
